The values that follow come from PMC7928338, “Distribution of Glyphosate-Resistance in Echinochloa crus-galli Across Agriculture Areas in the Iberian Peninsula” (Frontiers in Plant Science, 2021).

pIC50: −log10 of the molar value. Read-outs that look alike come from different tables or passages of the source.

Experiment [1] relates to T1, 5-enolpyruvylshikimate-3-phosphate synthase (EPSPS), glyphosate-susceptible populations.
T1 construct: native enzyme in leaf extract; hexaploid species, homoeologous EPSPS copies not distinguished
The experiment is described as follows: EPSPS activity in leaf extract, inorganic phosphate release. The format is biochemical, Echinochloa crus-galli. Particulars: population E2 (susceptible); glyphosate 0-1000 μM; read-out: I50.

Experiment [2] has as its system 5-enolpyruvylshikimate-3-phosphate synthase (EPSPS), glyphosate-resistant (R) and very resistant (VR) populations. The following applies: read-out: I50, glyphosate 0-1000 μM, stated gain. From the text:
EPSPS activity in leaf extract, inorganic phosphate release on 5-enolpyruvylshikimate-3-phosphate synthase (EPSPS), glyphosate-resistant (R) and very resistant (VR) populations

With `O=C(O)CNCP(=O)(O)O` [glyphosate], the pIC50 in experiment [1] is 6.10; in experiment [2] (population E7), 4.93; in experiment [2] (population E9), 4.74; in experiment [2] (population E10, possible EPSPS overexpression), 4.26; in experiment [2] (population E12, possible EPSPS overexpression), 4.34.
